We go through one compound from patent US20080293686A1, “SEMI-SOLID SYSTEMS CONTAINING AZETIDINE DERIVATIVES” (AVENTIS PHARMA S.A., priority 2003, published 2008).

≈ marks a conversion by molar mass, not a printed value.

Series [1] is described as follows: Solubility of compound (Ic) in lipids and other pharmaceutical cosolvents. Conditions: in Soyabean oil. The format is physicochemical. An excerpt:
The first step was to determine the solubility of compound (Ic) in an exhaustive series of lipids and other pharmaceutical cosolvents including vegetable oils, lipidic components, surfactants, hydrophilic components and phospholipids. The protocol of the solubility measurement is reported in the annex.

A short description of series [2]: Colloidal stability and self-emulsifying properties after incubation with simulated gastrointestinal fluids and filtration. The format is physicochemical. Conditions: diluted 1:50, 2 hours at 37° C., theoretical concentration 200 μg/ml. The protocol: The following simulated media were selected for the present experiment: • Gastric medium USP, pH 1.2 • Fasted intestinal medium, pH 6.8 (ref. Dressman et al., Pharm. Res., 1998) • Fed intestinal medium, pH 5 (ref. Dressman et al., Pharm. Res., 1998)
All Compound (Ic) formulations (400 mg) were diluted 1:50 in the gastric, fasted intestinal or fed intestinal medium (20 ml), then incubated during 2 hours at 37° C. under mechanical stirring (300 rpm). The drug concentration was determined by HPLC before and after filtration (2 μm).
The aim of this second part of the study was to evaluate the colloidal stability and the self-emulsifying properties of the emulsion/microemulsion/micellar solution of the (Ic) formulation after incubation in the GI media. Thus, the sample was filtered onto 2 μm (able to retain oil droplets >2 μm, as well as drug crystals >2 μm) then dosed by HPLC. The filter size (2 μm) has been chosen after a screening with different filter sizes (0.45, 2 and 5 μm) tested on the aqueous solution of the drug. […] In summary, the filtered fraction was approximately 1% in the gastric medium, 2% in the fasted intestinal medium, 4.5-5.5% in the fed intestinal medium.

In series [1], `CS(=O)(=O)C(=C1CN(C(c2ccc(Cl)cc2)c2ccc(Cl)cc2)C1)c1cc(F)cc(F)c1` [Compound (Ic)] registered a solubility of 31.8 mg/mL (≈ 64.3 mM). Further, the “Compound (Ic) recovered after filtration (2 μm) after previous incubation with GI media” value in series [2] (Fasted intestinal pH 6.8) was 4.2 µg/mL; in series [2] (Fed intestinal pH 5), 8.8 µg/mL; in series [2] (Gastric medium), 1.9 µg/mL.
